Measured values reported in patent US20230406803A1, “TROPOLONE DERIVATIVES AND TAUTOMERS THEREOF FOR IRON REGULATION IN ANIMALS” (Kinesid Therapeutics, Inc, priority 2020, published 2023).
Marks after values point to notes of the source that are not given here.

What was measured:
Mouse 6-hour PK study = conditions: mouse, in vivo
From the text: Useful such assays include, but are not limited to e.g., those measurements made in PK studies, such as rodent and non-human primate PK studies, including e.g., mouse (such as mouse 6-hour PK studies), rat PK studies, cynomolgus or rhesus PK studies, or the like. Useful measurements obtained in such PK studies include but are not limited to e.g., maximum concentration (Cmax) reflecting the “peak” of a drug observed after its administration that can reflect not only the rate but also the extent of absorption, area under the curve (AUC) representing the area under the plot of tissue (e.g., plasma) concentration against time after drug administration which is of particular use in estimating bioavailability of drugs and drug total clearance, half-life (t1/2) or the period of time required for the concentration or amount of drug to be reduced to exactly one-half of a given concentration or amount that indicates the persistence of the drug in its volume of distribution, and the like.
(§1) Such assessments included human and mouse liver microsomal stability assays as well as 6-hour mouse PK studies.

[1] = Mouse liver microsomal stability assay; assay type: in vitro ADME; conditions: mouse, microsomes
From the text: (§2) Further examples of useful assays include metabolic stability assays, such as but not limited to e.g., liver microsomal clearance assays which provide measurement such as, but not limited to e.g., liver microsomal clearance half-life (t1/2), liver microsomal intrinsic clearance (CLint), and the like. Such measurements are useful in assessing various characteristics of a subject compound, such as e.g., the availability of an intact compound to provide a pharmacological effect. A compound having a longer microsomal clearance half-life (t1/2), e.g., than a reference compound, will provide better exposure of the intact compound and greater availability to produce the relevant pharmacological effect. A compound having a less microsomal clearance, e.g., as measured by liver microsomal intrinsic clearance (CLint), will similarly result in greater exposure of the intact compound available for an increase in the relevant pharmacological effect, e.g., as compared to that of a reference compound with a higher liver microsomal intrinsic clearance (CLint). Other useful assays include in vitro hepatocyte metabolic stability assays.
as §1

[2] = tested on: mouse model of turpentine oil (TO)-induced anemia of inflammation; assay: Turpentine oil induced anemia of inflammation; assay type: in vivo; conditions: PO, hinokitiol as comparator in the respective studies
Experimental: Assay 3: Turpentine Oil Induced Anemia of Inflammation This is a model of anemia of inflammation by turpentine oil injection in combination with phlebotomy. Conditioning: Mice receive 3 doses of turpentine oil subcutaneously within 2 weeks. Mice are anesthetized and then administered 0.1 mL/20 g body weight of turpentine oil (TO) via subcutaneous injection in the scapular fat area using syringe and 27 G needle on Day 1, 7, and 14. On day 14, after the final injection of turpentine oil, a controlled 10% hemorrhage (approximately 200 uL) is accomplished via anesthetized orbital sinus bleed to increase the magnitude of anemia. The bleeding uses an orbital blood sampling technique, 200 uL capillary bleeding device (essentially a vacutainer tube with a glass capillary tube attached). Clean gauze lightly pre-soaked with sterile saline is held over the eye immediately following hemorrhage to promote hemostasis. Treatment: On day 15, 16 hours post last dose of turpentine oil, sham group and TO plus bleeding group are terminated. These two groups are used as part of control. On day 15, vehicle group and compound treatment groups receive proper vehicle or compounds at a specified dose accordingly, treatments can be oral once a day or oral twice a day. The treatment continues for 7 days, and then is terminated on day 21. On day 21, 3 hours post last treatment of test articles, the vehicle and treatment group are terminated. […] Depth of anesthesia is monitored by toe pinch method. […] Data analysis: The iron mobilization impact of compounds is assessed based on the serum iron level, transferrin saturation and TIBC; the ability of test article to restore normal iron homeostasis and metabolism, and subsequent rescue of anemia, is assessed by comparing the hemoglobin and hematocrit levels of test article treated groups with vehicle treated group. Test articles were evaluated in the described mouse model of turpentine oil (TO)-induced anemia of inflammation (A of I). […]

[3] = Human liver microsomal stability assay; assay type: in vitro ADME; conditions: human, microsomes
From the text: as §2, §1

Compound	AUC(0-t) (Mouse 6-hour PK study) [µg·h/mL]	Cmax (Mouse 6-hour PK study) [µg/mL]	half-life (Mouse 6-hour PK study) [h]	mouse 6-hour PK properties as compared to hinokitiol (Mouse 6-hour PK study)	clearance half-life (t1/2) and intrinsic clearance (CLint) as compared to hinokitiol [1]	half-life [1] [h]	microsomal CLint [1] [µL/min/mg]	levels of Hgb compared with hinokitiol [2]	clearance half-life (t1/2) and intrinsic clearance (CLint) as compared to hinokitiol [3]	half-life [3] [h]	microsomal CLint [3] [µL/min/mg]	Mouse CLint [1]	Mouse t1/2 [1]	Human CLint [3]	Human t1/2 [3]
Cc1cccc(F)c(=O)c1O [Ex. 32, 7-fluoro-2-hydroxy-3-methylcyclohepta-2,4,6-trien-1-one]	> 20	5 to 20	1.25 to 4.99	one or more improved mouse 6-hour PK properties as compared to hinokitiol	longer clearance half-life (t1/2) and lower intrinsic clearance (CLint), or both as compared to hinokitiol	> 2.5	< 25	comparable or higher levels of Hgb than hinokitiol	longer clearance half-life (t1/2) and lower intrinsic clearance (CLint), or both as compared to hinokitiol	> 2.5	< 25	–	–	–	–
CC(C)c1cccc(F)c(=O)c1O [Ex. 4, 7-fluoro-2-hydroxy-3-isopropylcyclohepta-2,4,6-trien-1-one]	> 20	5 to 20	1.25 to 4.99	one or more improved mouse 6-hour PK properties as compared to hinokitiol	longer clearance half-life (t1/2) and lower intrinsic clearance (CLint), or both as compared to hinokitiol	0.417 to 0.833	25 to 50	–	longer clearance half-life (t1/2) and lower intrinsic clearance (CLint), or both as compared to hinokitiol	0.417 to 0.833	> 50	–	–	–	–
CC(C)c1cccc(=O)c(O)c1F [Ex. 2, 3-fluoro-2-hydroxy-4-isopropylcyclohepta-2,4,6-trien-1-one]	5 to 20	5 to 20	1.25 to 4.99	one or more improved mouse 6-hour PK properties as compared to hinokitiol	longer clearance half-life (t1/2) and lower intrinsic clearance (CLint), or both as compared to hinokitiol	> 2.5	< 25	–	longer clearance half-life (t1/2) and lower intrinsic clearance (CLint), or both as compared to hinokitiol	> 2.5	< 25	–	–	–	–
CC(C)c1ccc(F)c(=O)c(O)c1 [Ex. 1, 7-fluoro-2-hydroxy-4-isopropylcyclohepta-2,4,6-trien-1-one]	5 to 20	5 to 20	1.25 to 4.99	one or more improved mouse 6-hour PK properties as compared to hinokitiol	longer clearance half-life (t1/2) and lower intrinsic clearance (CLint), or both as compared to hinokitiol	> 2.5	< 25	comparable or higher levels of Hgb than hinokitiol	longer clearance half-life (t1/2) and lower intrinsic clearance (CLint), or both as compared to hinokitiol	0.417 to 0.833	25 to 50	–	–	–	–
O=c1ccccc(OC2CCC2)c1O [Ex. 56, 3-cyclobutoxy-2-hydroxycyclohepta-2,4,6-trien-1-one]	1.5 to 5	1.5 to 5	< 1.25	one or more improved mouse 6-hour PK properties as compared to hinokitiol	longer clearance half-life (t1/2) and lower intrinsic clearance (CLint), or both as compared to hinokitiol	0.417 to 0.833	25 to 50	–	longer clearance half-life (t1/2) and lower intrinsic clearance (CLint), or both as compared to hinokitiol	1.67 to 2.5	< 25	–	–	–	–
O=c1ccc(OC2COC2)ccc1O [Ex. 12, 2-hydroxy-5-(oxetan-3-yloxy)cyclohepta-2,4,6-trien-1-one]	< 0.499	0.5 to 1.5	1.25 to 4.99	one or more improved mouse 6-hour PK properties as compared to hinokitiol	longer clearance half-life (t1/2) and lower intrinsic clearance (CLint), or both as compared to hinokitiol	–	–	–	longer clearance half-life (t1/2) and lower intrinsic clearance (CLint), or both as compared to hinokitiol	–	–	0.00* μL/min/mg protein	∞*	0.00* μL/min/mg protein	∞*
O=c1ccccc([C@H]2CCCO2)c1O (single isomer, unassigned) [Ex. 41]	0.5 to 1.5	1.5 to 5	< 1.25	one or more improved mouse 6-hour PK properties as compared to hinokitiol	longer clearance half-life (t1/2) and lower intrinsic clearance (CLint), or both as compared to hinokitiol	0.417 to 0.833	25 to 50	–	longer clearance half-life (t1/2) and lower intrinsic clearance (CLint), or both as compared to hinokitiol	0.417 to 0.833	25 to 50	–	–	–	–
O=c1c(F)cccc(C2CCOCC2)c1O [Ex. 36, 7-fluoro-2-hydroxy-3-(tetrahydro-2H-pyran-4-yl)cyclohepta-2,4,6-trien-1-one]	> 20	> 20	1.25 to 4.99	one or more improved mouse 6-hour PK properties as compared to hinokitiol	longer clearance half-life (t1/2) and lower intrinsic clearance (CLint), or both as compared to hinokitiol	> 2.5	< 25	–	longer clearance half-life (t1/2) and lower intrinsic clearance (CLint), or both as compared to hinokitiol	–	–	–	–	0.00* μL/min/mg protein	∞*
O=c1ccccc([C@@H]2CCCO2)c1O (single isomer, unassigned) [Ex. 42]	0.5 to 1.5	1.5 to 5	< 1.25	one or more improved mouse 6-hour PK properties as compared to hinokitiol	longer clearance half-life (t1/2) and lower intrinsic clearance (CLint), or both as compared to hinokitiol	0.417 to 0.833	25 to 50	comparable or higher levels of Hgb than hinokitiol	longer clearance half-life (t1/2) and lower intrinsic clearance (CLint), or both as compared to hinokitiol	0.833 to 1.67	< 25	–	–	–	–
